For experiment [1], the target named is T1, OR51E2 (Homo sapiens, UniProt Q9H255).
T1 construct: expressed in transfected cells; host or cells: Hana3A cells (modified human embryonic kidney cells)
T1 sequence (Q9H255 1-320): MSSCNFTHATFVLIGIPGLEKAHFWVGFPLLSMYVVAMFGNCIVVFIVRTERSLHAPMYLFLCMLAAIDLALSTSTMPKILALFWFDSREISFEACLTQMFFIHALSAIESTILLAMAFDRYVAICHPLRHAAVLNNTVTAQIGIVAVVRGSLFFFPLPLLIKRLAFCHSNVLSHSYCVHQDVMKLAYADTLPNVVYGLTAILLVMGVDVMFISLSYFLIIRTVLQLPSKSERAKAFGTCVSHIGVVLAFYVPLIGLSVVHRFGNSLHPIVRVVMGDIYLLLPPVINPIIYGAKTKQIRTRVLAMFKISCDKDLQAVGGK
As to the kind of experiment: in vitro luciferase assay (CRE-Luc) in Hana3A cells transfected with OR51E2. The format is cell-based. The note with it: for EC50: OR51E2 agonist, Hana3A cells, luciferase, read-out: EC50 (potency); for Efficacy: compared to the 1 mM PA response. Here is the method: Hana3A cells (modified human embryonic kidney cells) were cultured in 96 well plates in M10PSF medium. LNCaP human prostate cancer cells were cultured in both RPMI medium and androgen deprived RPMI medium. Hana3A cells were transfected with CRE-Luc (CREB-dependent luciferase (Firefly)) and SV40-RL promoter plasmids, and pCI and OR51E2 plasmids. […] Upon ligand binding, an increase in cAMP drives the expression of Firefly luciferase. Increase in luminescence signal was measured with a luminometer and Optima Data Analysis software. The luminescent signal is directly proportional to receptor activation. A general schematic of a luciferase assay is shown in FIG. 5 and a schematic of the assay used in this Example is shown in FIG. 6.
The top 56 compounds from the VLS list were tested using the in vitro expression and luciferase assay. […] The biologically relevant concentrations of each metabolite were individually determined based on available data in the literature. If no data were available, compounds were tested in the range of 1 nM-100 μM. Responses were normalized to the response with 1 mM propionic acid (PA), a previously identified agonist, and also to a response with no-control.

Experiment [2] has as its system LNCaP cells. As to the kind of experiment: untargeted GC/MS metabolomics signatures of LNCaP cells treated with OR51E2 ligand. The format is cell-based, human. The conditions noted are these: 72 hours, 100 nM 19-OH AD, 250 μM AFMK, 1 mM PA. Here is the method:
Metabolomics signatures were assessed using untargeted gas chromatography/mass spectrometry (GC/MS) to analyze LNCaP cells treated with an OR51E2 ligand for 3 days. There were six biological replicates for each treatment and the results were analyzed using MetaboAnalyst software. The same analysis will also be conducted using RWPE-2 cells.
GC/MS analysis detected greater than 250 features, and 115 of them were annotated. In FIG. 24A-24F, the top 15 metabolites are presented showing the most significant differences in cells treated with agonists when compared to control cells.

Experiment [3] has as its system LNCaP cells. As to the kind of experiment: RT-PCR assay of NED marker and OR51E2 transcript levels in LNCaP cells. The format is cell-based, human. Here is the method: To assess the differentiation status of LNCaP cells following treatment with an OR51E2 ligand, cells were exposed to the ligands for three days. Biological markers of NED were analyzed using an RT-PCR assay. The following markers were tested: neuron specific enolase (NSE) and α-methylacyl-CoA racemase (AMACR), an enzyme essential for isomerization of branched-chained fatty acids that is present at low levels in healthy prostate cells and increased in PCa and in NE-like cells. Furthermore, changes in the expression levels of OR51E2 and androgen receptor (AR) were determined. This experiment will also be conducted using RWPE-2 cells.
For example, 19-OH AD agonist treatment of LNCaP cells increased OR51E2 transcript levels. […] Further studies using siRNA gene knockdown assays, will determine whether activated/overexpressed OR51E2 is involved in NEtD.

Experiment [4] has as its system LNCaP cells. The note with it: cited from earlier work.
Experiment [5] has as its system LNCaP cells. As to the kind of experiment: cell viability/proliferation assay of LNCaP cells (CellTiter-Glo). In kind it is cell-based, human. The note with it: 10 uM, 7 day incubation, vs untreated control. Here is the method:
The NEtD status was assessed through analysis of viability and proliferation of LNCap cells using use CellTiter-Glo Luminescent cell viability assay (Promega). […] Viability and proliferation assays will also be conducted with OR51E2 ligands in RWPE-2 cells.
Furthermore, a cell viability/proliferation assay of prostate cancer LNCaP cells was performed using 13-cis RA during a 7 day incubation period.
(ATP-based viability assays read luminescence as a measure of living cells.)

[6] abbreviates: 12 days incubation with agonist, vs control.

Molecules are shown by their SMILES. Square brackets hold non-standard residues; d marks the D form. Peptide text beside a SMILES is read from it.

In general, EC50 refers to the concentration needed to bring the measured effect to its halfway point. For `O=C1CCCN1` [2-Pyrrolidinone], in experiment [1], the EC50 was determined as 1.9 nM and the Efficacy was found to be 0.525.

Take `Nc1ncnc2c1ncn2C1OC(CO)C2OP(=O)(O)OC21` (stereo not drawn) [Adenosine 2′,3′-cyclic phosphate]: in experiment [1], the half-maximal effective concentration (EC50) was 26 nM and the Efficacy amounted to 1.025.

Turning to `NC(N)=O` [Urea], in experiment [1], the EC50 stood at 23 nM and the Efficacy worked out at 0.580.

`Cc1c(O)cc2c(c1C)OC(C)(CCC(=O)O)CC2` (stereo not drawn) [Gamma-CEHC]: in experiment [1], the EC50 is 6.4 nM and the Efficacy came to 1.286.

In turn, `NCC(=O)O` [Glycine] returned an Efficacy in experiment [1] of 0.613.

As to `O=C(O)[C@@H](O)CO` [L-Glyceric acid], the EC50 in experiment [1] was determined as 1.9 nM.

Consider `OC[C@H]1O[C@H](O[C@H]2C(O)O[C@H](CO)[C@@H](O)[C@@H]2O)[C@H](O)[C@@H](O)[C@@H]1O` (stereo partly drawn) [Kojibiose], for which, in experiment [1], the EC50 is 1000 nM and the Efficacy amounted to 0.790.

Turning to `O=C(O)C(=O)CO` [Hydroxypyruvic acid], in experiment [1], the EC50 came out at 420 nM and the Efficacy stood at 1.100.

Take `CC(=O)N[C@@H](CCC(=O)O)C(=O)O` [N-Acetylglutamic acid]: in experiment [1], the EC50 stood at 0.23 nM.

As for `CCCCCCCCCCCCCCCC(=O)O` [Palmitic acid], in experiment [1], the EC50 amounted to 9.8 nM and the Efficacy stood at 0.927.

In the case of `C[C@]12CC[C@H]3[C@@H](CCC4=CC(=O)CC[C@@]43C)[C@@H]1CC[C@H]2O` [Epitestosterone], in experiment [1], the EC50 came to 0.69 nM and the Efficacy was 0.477.

As to `COc1ccc(NC=O)c(C(=O)CCNC(C)=O)c1` [AFMK, N-acetyl-N-formyl-5-metoxykynurenamine], in experiment [1], the EC50 turned out to be 12000 nM and the Efficacy was 1.483. The “metabolite differences relative to controls (GC/MS)” value in experiment [2] is “significant differences relative to controls”.

As to `C[C@]12CC[C@@H]3c4ccc(O)cc4CC[C@H]3[C@@H]1C[C@@H](O)[C@@H]2O` [Estriol], in experiment [1], the EC50 was 53000 nM.

As for `NCC(=O)NCC(=O)O` [Glycylglycine] (H-Gly-Gly-OH), the EC50 in experiment [1] worked out at 11000 nM.

As to `CCC(=O)O` [PA, propionic acid], in experiment [3] (setting [6]), the AMACR transcript levels entry is “increased” and the NSE transcript levels entry is listed as “increased”. Further, the “metabolite differences relative to controls (GC/MS)” value in experiment [2] is “significant differences relative to controls”.

As for `C[C@]12CC[C@H]3[C@@H](CCC4=CC(=O)CC[C@@]43CO)[C@@H]1CCC2=O` [19-OH AD, 19-hydroxyandrost-4-ene-3,17-dione], in experiment [1], the EC50 came out at 0.15 nM and the Efficacy came to 0.890. Moreover, the OR51E2 transcript levels result in experiment [3] (setting [6]) is on record as “increased”. Further, in experiment [2], the “metabolite differences relative to controls (GC/MS)” value was “significant differences relative to controls”.

As to `C[C@]12CCC(=O)CC1CC[C@@H]1[C@@H]2CC[C@]2(C)C(=O)CC[C@@H]12` (stereo partly drawn) [Androstanedione], in experiment [1], the EC50 is 0.79 nM and the Efficacy is reported as 0.888.

For the molecule `CC(=O)/C=C/C1=C(C)CCCC1(C)C` [beta ionone, beta-ionone], the “proliferation of LNCaP cells” value in experiment [4] (Neuhaus et al. (2009), OR51E2/PSGR activation) is “decreased”.

As a reminder, the IC50 is the concentration at which inhibition is half-maximal. For `CC1=C(/C=C/C(C)=C/C=C/C(C)=C\C(=O)O)C(C)(C)CCC1` [13-cis RA, 13-cis retinoic acid], the IC50 in experiment [1] (responses normalized to 1 mM PA, read-out: IC50 (OR51E2 antagonist)) was 160 nM. Moreover, the OR51E2 transcript levels result in experiment [3] (10 μM, 3 days, vs control cells) is listed as “significantly decreased”. Moreover, the LNCaP growth entry in experiment [5] is reported as “effectively impeded”. For the same molecule, the “LNCaP cell growth and tumorigenic potential” value in experiment [4] (Dahiya et al. (1994)) was “inhibits cell growth and decreases tumorigenic potential”.

Consider `C[C@@H](N)C(=O)N[C@H](C)C(=O)O` [D-Alanyl-d-alanine] (H-[dA]-[dA]-OH), for which the EC50 in experiment [1] worked out at 14000 nM.

(Values after US12186294B2, “Modulators of prostate-specific g-protein receptor (PSGR/OR51E2) and methods of using same” (Duke University, priority 2016, dated 2025).)
